One assay relates to S. aureus PIA 90 biofilm. Briefly: Biofilm metabolic activity, Alamar blue reduction. The class given is cell-based, Staphylococcus aureus. The method, then:
(§1) Biofilm formation was induced in 96-well flat bottom microtitre plates (Nunclon Surface, NUNC, Roskilde, Denmark). First, overnight cultures were diluted 1:100 in MHIIB (S. epidermidis and S. haemolyticus) or tryptic soy broth (TSB) with 5% glucose and 5% NaCl (S. aureus). Two hundred of this bacterial suspension (10^7 cfu/ml) was added to each well and incubated for 24 h at 37° C. After 24 h the wells were carefully washed twice with phosphate-buffered saline (PBS) to remove planktonic bacteria. The washing procedure was evaluated by measuring metabolic activity of the PBS with the Alamar blue method, described in detail below. […]
(§2) We quantified the metabolic activity of biofilm with a slightly modified method previously described by Pettit et al. in Antimicrob. […] After 1 h incubation at 37° C., absorbance was recorded at 570 and 600 nm using Versamax tuneable microplate reader (Molecular Devices, Sunnyvale, Calif., USA). […]
(§3) The percent reduction of AB was calculated according to the manufacturer's formula (Invitrogen, Carlsbad, USA). We calculated mean and standard deviations (SD) of all repeated measurements. Pearson's two-tailed correlation between the AB method and the CV method (FIG. 2) was calculated on averaged data from all 6 staphylococcal strains. […]
For orientation: Resazurin is reduced to fluorescent resorufin, in cell work by metabolically active cells.

For assay [1], the system named is S. haemolyticus TUH 51-07 biofilm. Nature of the assay: Biofilm metabolic activity, Alamar blue reduction. The class given is cell-based, Staphylococcus haemolyticus. As to conditions: 500 mg/L, 24 h. As to the method:
as §1, §2, §3

For assay [2] the test system is unchanged. Nature of the assay: Biofilm imaging, LIVE/DEAD staining and confocal laser scanning microscopy. The class given is cell-based, Staphylococcus haemolyticus. As to conditions: 24 h treatment. As to the method:
One ml aliquots of MHIIB-diluted overnight culture was used to grow S. haemolyticus TUH 51-07 biofilm on plastic coverslides (Thermanox, cellculture treated on one side, NUNC, Roskilde, Denmark) in 24-well dishes (Falcon 3047, Becton Dickinson, NJ, USA) for 24 h. The coverslides were then washed carefully with PBS, moved to a new plate and treated for 24 h with tetracycline 50 mg/L and 500 mg/L, vancomycin 50 mg/L and 500 mg/L, or Compound A 50 mg/L and 500 mg/L. The coverslides were washed again with […] and stained with a LIVE/DEAD kit (Invitrogen Molecular Probes, Eugene, Oreg., USA) following the manufacturer's instructions. This stain contains SYTO 9 (green fluorescent) and propidium iodide (PI; red fluorescent), both binding to DNA. When used alone, the SYTO 9 generally stains all bacteria in a population; both those with intact and those with damaged membranes. In contrast, PI penetrates only bacteria with damaged membranes, causing a reduction in the SYTO 9 stain green fluorescence when both dyes are present. We examined treated and untreated biofilms with a Leica TCS SP5 (Leica Microsystems CMS Gmbh, Mannheim, Germany) confocal laser scanning microscope (CLSM). Images were obtained using a 63×1.2 NA HCX PL APO water immersion lens. For detection of SYTO9 (green channel), we used the 488 nm line of the argon laser and a detection bandwidth of 495-515 nm. For PI detection (red channel), we used the 561 nm line and a detection bandwidth of 615-660 nm. The two fluorescent-signals were collected sequentially at 400 Hz. Image analyses and export was performed in Leica LAS AF version 1.8.2.

Assay [3] deals with six staphylococcal strains (2 S. epidermidis, 2 S. haemolyticus and 2 S. aureus). Nature of the assay: Susceptibility testing under planktonic growth condition, EUCAST breakpoints. It is filed as cell-based. As to conditions: all 6 strains; EUCAST criteria. As to the method:
The six staphylococcal strains (2 S. epidermidis, 2 S. haemolyticus and 2 S. aureus) used in this study were selected based on their previously known biofilm forming capacity (Table 1).
(§4) Bacteria were grown overnight at 37° C. in cation adjusted Mueller-Hinton II Broth (MHIIB).
We determined the MICs of oxacillin, gentamicin, tetracycline, vancomycin and linezolid using E-test (AB Biodisk, Solna, Sweden) and MICs of rifampicin using broth microdilution assay. Breakpoints were interpreted according to EUCAST criteria. We selected 3 different SAMPs (Compounds A, B and C; Lytix Biopharma, Tromsø, Norway—see FIG. 1) based on previously known antimicrobial activities, and determined their exact MICs with broth microdilution assay. All 3 SAMPs are tripeptides with two arginine residues providing their cationic moieties (FIG. 1). The lipophilic bulk is provided by a modified tryptophane derivate. The difference between the compounds is the size of the C-terminal modification; Compound A has the smallest and Compound B has the largest C-terminal modification (FIG. 1). The molecular weights of the SAMPs are in the range of 700-800 Dalton.

Assay [4] concerns Staphylococcus aureus PIA 9. Briefly: microbe, parasite or virus in culture. The method, then:
as §4
(§5) We determined the MICs of oxacillin, gentamicin, tetracycline, vancomycin and linezolid using E-test (AB Biodisk, Solna, Sweden) and MICs of rifampicin using broth microdilution assay. Breakpoints were interpreted according to EUCAST criteria. […] All 3 SAMPs are tripeptides with two arginine residues providing their cationic moieties (FIG. 1). The lipophilic bulk is provided by a modified tryptophane derivate. […] The molecular weights of the SAMPs are in the range of 700-800 Dalton.

In assay [5] the test system is Staphylococcus aureus PIA90. Nature of the assay: microbe, parasite or virus in culture. As to the method: as §4, §5
Assay [6] deals with Staphylococcus haemolyticus TUH 51-03. Briefly: microbe, parasite or virus in culture. The method, then:
as §4, §5

The subject of assay [7] is Staphylococcus epidermidis RP62A ATCC 35984. Nature of the assay: microbe, parasite or virus in culture. The method, then:
as §4, §5

Assay [8] concerns Staphylococcus haemolyticus TUH 51-07. Briefly: microbe, parasite or virus in culture. As to the method: as §4, §5
Assay [9] relates to Staphylococcus epidermidis TUH 08-16. Briefly: microbe, parasite or virus in culture. The method, then:
as §4, §5

A further assay relates to S. aureus PIA9 biofilm. Nature of the assay: Biofilm metabolic activity, Alamar blue reduction. It is filed as cell-based, Staphylococcus aureus. As to the method:
as §1, §2, §3

Assay [10] concerns 24 h old biofilm of 6 different staphylococcal strains. Briefly: Biofilm metabolic activity, Alamar blue reduction. To be noted: 50 mg/L; mature biofilms from 4 out of the 6 strains tested. The class given is cell-based, S. epidermidis, S. haemolyticus, S. aureus.
Experimental: The washed biofilms were subjected to treatment with antibiotics or SAMPs at different concentrations. Stock solutions of the tetracycline (Sigma Aldrich), vancomycin (Alpharma) and linezolid (Pfizer) were diluted in MHIIB to 5 mg/L, 50 mg/L and 500 mg/L, and rifampicin (Sigma Aldrich) was diluted in MHIIB to 0.01 mg/L, 0.1 mg/L and 1 mg/L. Trifluoroacetate salts of the SAMPs were dissolved in sterile water and diluted to 5 mg/L, 50 mg/L and 500 mg/L in MHIIB. 200 μl of antibiotics or SAMPs, in different concentrations, were added to each well and incubated for 24 h at 37° C. Positive controls were untreated biofilms only added 200 μl MHIIB. Negative controls were only 200 μl MHIIB, with no bacteria added.
We quantified the metabolic activity of biofilm with a slightly modified method previously described by Pettit et al. in Antimicrob. […] Briefly, the wells were washed twice with PBS. We then added 250 μl MHIIB with 5% Alamar blue (AB; Invitrogen, Carlsbad, Calif., USA) to each well. AB is a redox indicator which both fluoresces and changes colour in response to chemical reduction. The extent of reduction is a reflection of bacterial cell viability. After 1 h incubation at 37° C., absorbance was recorded at 570 and 600 nm using Versamax tuneable microplate reader (Molecular Devices, Sunnyvale, Calif., USA). […] The highest and lowest value of each run was excluded from the analyses, and the remaining 18 values were averaged.
We defined two levels of antimicrobial suppression of metabolic activity.

≈ marks a conversion by molar mass, not a printed value. Entries after “also recorded” stand apart in the source; their conditions may differ.

For the compound `CN(C)[C@@H]1C(=O)C(C(N)=O)=C(O)[C@@]2(O)C(=O)C3=C(O)c4c(O)cccc4[C@@](C)(O)[C@H]3C[C@@H]12` [TET, tetracycline], the “suppression of metabolic activity (AB reduction)” value with S. aureus PIA 90 biofilm is “complete suppression”. Moreover, in assay [1], the “metabolic activity in biofilm assay” value is on record as “hardly any measurable metabolic activity”. In addition, the “LIVE/DEAD staining of biofilm cells (CLSM)” value in [2] (500 mg/L) is listed as “a significant part of the cells are still green; also recorded: still contained a significant number of living cells”. Further, the “susceptibility under planktonic growth” value in assay [3] was “susceptible; also recorded: sensitive”. The MIC in assay [4] (planktonic, SA PIA 9) came out at 0.5 µg/mL (≈ 1.13 µM); in assay [5] (planktonic, SA PIA90), 0.5 µg/mL (≈ 1.13 µM); in assay [6] (planktonic, SH TUH 51-03) it was 1 µg/mL (≈ 2.25 µM); in assay [7] (planktonic, SE RP62A ATCC 35984) it was 0.5 µg/mL (≈ 1.13 µM); in assay [8] (planktonic, SH TUH 51-07) it was 0.5 µg/mL (≈ 1.13 µM); in [9] (planktonic, SE TUH 08-16), 2 µg/mL (≈ 4.5 µM).
In the case of `CN[C@H](CC(C)C)C(=O)N[C@H]1C(=O)N[C@@H](CC(N)=O)C(=O)N[C@H]2C(=O)N[C@H]3C(=O)N[C@H](C(=O)N[C@H](C(=O)O)c4cc(O)cc(O)c4-c4cc3ccc4O)[C@H](O)c3ccc(c(Cl)c3)Oc3cc2cc(c3O[C@@H]2O[C@H](CO)[C@@H](O)[C@H](O)[C@H]2O[C@H]2C[C@](C)(N)[C@H](O)[C@H](C)O2)Oc2ccc(cc2Cl)[C@H]1O` [VAN, vancomycin], the resistance of biofilm entry in the assay on S. aureus PIA9 biofilm is recorded as “completely resistant”. The “suppression of metabolic activity (AB reduction)” value in assay [10] was “strong suppression (A strong suppression was obtained if an agent, after adjusting for the negative control, at a certain concentration caused 75% reduction of AB compared to positive control)”. Also, in assay [2] (50 mg/L), the “LIVE/DEAD staining of biofilm cells (CLSM)” value was “predominantly green cells; also recorded: most bacteria were not killed”. In addition, the “susceptibility under planktonic growth” value in [3] is listed as “susceptible; also recorded: sensitive”. Also, the MIC is 2 µg/mL (≈ 1.38 µM) in assay [4] (Staphylococcus aureus, PIA9); 2 µg/mL (≈ 1.38 µM) in assay [5] (Staphylococcus aureus, PIA90); 4 µg/mL (≈ 2.76 µM) in [6] (Staphylococcus haemolyticus, TUH5103); 4 µg/mL (≈ 2.76 µM) in assay [7] (Staphylococcus epidermidis, ATCC35984); 2 µg/mL (≈ 1.38 µM) in assay [8] (Staphylococcus haemolyticus, TUH5107); 2 µg/mL (≈ 1.38 µM) in [9] (Staphylococcus epidermidis, TUH0816).
